Data set [1] relates to wild Mediterranean fruit flies. Put plainly: Wild fly response to ceralure B1 enantiomers, first experiment, Kauai coffee. The note with it: for Response of wild flies, Mean ± s.e.: 10 mg, traps serviced every two days; for Male capture compared with other treatments: 10 mg dosage.
The test system of data set [2] is Mediterranean fruit fly, Ceratitis capitata (Wiedemann). The data set is described as follows: Dose-response field test, Jackson traps, released sterile flies. It counts as in vivo. The settings on record: for Mean male fly capture ± s.e.: 48 hours, released sterile flies; for Male capture compared with other treatments: 1 mg, 0.1 mg and 0.01 mg dosages. The protocol: Field attraction of Mediterranean fruit fly, Ceratitis capitata (Wiedemann), to stereoselectively synthesized enantiomers of the ceralure B1 isomer: The attractancy of the two newly synthesized ceralure B1 enantiomers was evaluated against laboratory and wild populations of medfly and the response to these compounds was compared to commercially available trimedlure and ceralure. Field tests using released sterile flies on the island of Hawaii or field tests against wild populations of medfly in commercial coffee plantations on the island of Kauai were carried out to compare the attractancy, dose response and initial persistence of the new molecules and a racemic (50:50) mixture of the two.
(§1) Insects: Sterilized Mediterranean fruit fly pupae were obtained from the USDA-ARS-USPBARC rearing facility in Honolulu, Hi. The flies were reared on an artificial diet (Tanaka, N., et al., J. Econ. Entomol., 62: 967-968 (1969)) under standard mass-rearing conditions and sterilized as pupae at a dose of 150 GY and two days before emergence. Flies were shipped by air to Hilo where 150 ml of pupae (both sexes) was placed in 15-gallon Rubbermaid action packers modified by screened panels on the bottoms and sides of the units. The emerged flies were given water, sugar and hydrolyzed yeast protein. Flies were 2-9 days old when tested. Wild populations of medflies were present in coffee orchards on the island of Kauai.
(§2) Bioassays: All tests were conducted using tent-shaped Jackson traps with open ends, a removable sticky insert and a ½ inch cotton wick containing the test chemical (Harris, E. J., et al., J. Econ. Entomol., 64: 62-65 (1971)). All tests were conducted using a randomized complete block design having five traps of each treatment in the block. The tests were replicated at least 5 times.
Dose-response tests: 10 mg, 1 mg, 0.1 mg and 0.01 mg doses of each compound (in 100 μl acetone) were tested on ½ inch cotton wicks in Jackson traps. Acetone was used in the control. The treatments were ceralure B1 (1S,2S,5S), ceralure B1 (Racemic), ceralure B1 (1R,2R,5R), trimedlure, ceralure and a blank control. Traps were placed in a macadamia nut orchard on the island of Hawaii near the town of Hilo. Traps were separated by every other tree in every row (approximately 15 meters between traps). Flies (approximately 6,000) were then released by slowly walking between rows while allowing the flies to escape from the opened action packer. Traps were left out for 48 hours after which the traps were collected and brought back to the lab for analysis. Both males and females were counted on the sticky inserts.
(§3) Data analysis: Both male and female medfly were counted on the sticky inserts. […] Data was subjected to analysis of variance (Proc GLM) and the Turkey's test for separation of means values. Significant differences in response were determined at the P=0.05 level. Data were not transformed prior to analysis. Statistical analysis was performed on SAS ver 6.12 (SAS Institute, Cary, N.C.) using a PC. Values presented on the tables are mean values SEM.

The test system is the same in data set [3]. Put plainly: Longevity field test over three weeks, Jackson traps, released sterile flies. It is filed as in vivo. The settings on record: for Male capture compared with other treatments: 10 mg dose. On the procedure:
as §1, §2
Longevity tests: Preliminary tests to determine the effectiveness of the different chemical compounds over time were also carried out using sterile flies released in a macadamia nut orchard. In these tests all compounds were applied to the cotton wick at a 10 mg dose. 100 μl of each compound was placed on a ½ inch wick inside a Jackson trap. Traps were serviced weekly for three weeks. Inserts were changed each week and new flies were released but the same compounds were left in the field to age.
as §3

The next data set has as its system Mediterranean fruit fly. The note with it: field studies from the literature; cited from earlier work.
Data set [4] has as its system wild Mediterranean fruit flies. Put plainly: Wild fly response, second experiment against standard 2 g trimedlure plug. The note with it: for Male capture compared with other treatments: after 48 hours, 10 mg versus 2 g trimedlure plug.
For data set [5] the following is noted: known in the literature; cited from earlier work.
The mark [6] stands for this setting: dose .01 mg on cotton wick, N = 25.
Where [7] appears, read: Week 1, 10 mg dose, released sterile flies.
[8] abbreviates: Week 2, 10 mg dose, same lure aged in field.
[9] abbreviates: Week 3, 10 mg dose, same lure aged in field.

As for `CCOC(=O)[C@H]1C[C@@H](I)CC[C@@H]1C` [B1 1S,2S,5S, Ethyl(1S, 2S, 5S)-5-iodo-2-methylcyclohexane-1-carboxylate], the “Response of wild flies, Mean ± s.e.” value in data set [1] was determined as 40.5 ± 8.3 c. Further, the “Mean male fly capture ± s.e.” value in data set [2] (dose 1 mg on cotton wick) was 173 ± 42.2 b; in data set [2] (dose 10 mg on cotton wick), 151.80 ± 25.3 c; in data set [2] (setting [6]), 38.3 ± 6.5 b; in data set [2] (dose .1 mg on cotton wick), 57.20 ± 8.3 c. Moreover, the “Male fly capture, mean ± SEM” value in data set [3] (setting [7]) amounted to 135.7 ± 33.4 b; in data set [3] (setting [8]), 5.5 ± 4.5 b; in data set [3] (setting [9]), 0 ± 0 a.
As to `CC1CC(Cl)CCC1C(=O)OC(C)(C)C` (stereo not drawn) [TML-C, 1,1-dimethylethyl-cis-4-chloro-trans-2-methylcyclohexane-1-carboxylate], in the data set with Mediterranean fruit fly, the “Relative attractiveness toward the Mediterranean fruit fly” value is on record as “most active”.
Consider `C[C@H]1C[C@H](Cl)CC[C@@H]1C(=O)OC(C)(C)C` (relative stereo) [(1S, 2S, 4R), 1,1-dimethylethyl-cis-4-chloro-trans-2-methylcyclohexane-1-carboxylate], for which the “Relative attractiveness toward the Mediterranean fruit fly” value in the data set with Mediterranean fruit fly was “most attractive”.
As to `CCOC(=O)[C@@H]1C[C@H](I)CC[C@H]1C` [B1 1R,2R,5R, Ethyl (1R,2R,5R)-5-iodo-2-methylcyclohexane-1-carboxylate], the “Male capture compared with other treatments” value in data set [4] is “captured the most male medflies but not significantly more than the B1 racemic mixture and commercial trimedlure”; in data set [4] (listed as B1 (1R,2R,5R) enantiomer), “caught more wild flies after two days than the TML plug”; in data set [1] it was “captured significantly more males than the B1 racemic mixture”; in data set [2] (10 mg), “captured significantly more male medflies than B1 (1S,2S,5S), commercial trimedlure, commercial ceralure and (acetone) control”; in data set [3] (after one week), “captured significantly more males than B1 (1S,2S,5S), commercial trimedlure, commercial ceralure and control”. Besides, the “Flies captured as share of the TML plug baited trap” value in data set [4] (after an additional 5 days, 10 mg versus 2 g TML plug) is “approximately 33%”. For the same compound, in data set [1], the “Response of wild flies, Mean ± s.e.” value was determined as 104.2 ± 13.7 a. In data set [2] (0.01 mg versus trimedlure 10 mg, mean values from Table 1), the “Dose compared to trimedlure to achieve the same trap capture” value worked out at 1000 times less. The “Male capture compared with B1 racemic mixture” value in data set [2] (10 mg, 1 mg and 0.1 mg doses) was “captured significantly more males than the B1 racemic mixture”. For the same compound, the “Mean male fly capture ± s.e.” value in data set [2] (dose 1 mg on cotton wick) came to 473.07 ± 56.6 a; in data set [2] (dose 10 mg on cotton wick), 487.27 ± 33 a; in data set [2] (setting [6]) it was 117 ± 14.1 a; in data set [2] (dose .01 mg on cotton wick, N = 25, listed as 1R,2R,5R enantiomer), 117; in data set [2] (dose .1 mg on cotton wick), 303.07 ± 34.5 a. Also, the “Activity relative to trimedlure at similar doses” value in data set [2] (male capture compared to trimedlure, similar doses) is reported as 7-10 times. The “Male fly capture, mean ± SEM” value in data set [3] (setting [7]) is listed as 338.9 ± 40.1 a; in data set [3] (setting [8]), 69.3 ± 24.9 ab; in data set [3] (setting [9]) it was “.3 ± .3 a”.
“ethyl 4 (and 5)-iodo-2-methylcyclohexane-1-carboxylate [Com. Ceralure, reference compound]”: the “Relative attractiveness toward the Mediterranean fruit fly” value in the data set with Mediterranean fruit fly was “more persistent and potent attractant than TML”. Besides, the “Response of wild flies, Mean ± s.e.” value in data set [1] was 31.8 ± 4.4 c. The “Mean male fly capture ± s.e.” value is listed as 65.07 ± 9.5 bc in data set [2] (dose 1 mg on cotton wick), 170.47 ± 33.1 c in data set [2] (dose 10 mg on cotton wick), 23.4 ± 6.3 bc in data set [2] (setting [6]) and 11.27 ± 4.1 c in data set [2] (dose .1 mg on cotton wick). Besides, the “Volatility compared with trimedlure” value in data set [5] is listed as “less volatile than trimedlure”. The “Male fly capture, mean ± SEM” value is on record as 135 ± 16.8 b in data set [3] (setting [7]), 3.1 ± 2.2 b in data set [3] (setting [8]) and “.47 ± .27 a” in data set [3] (setting [9]).
Regarding `CCOC(=O)[C@H]1C[C@@H](I)CC[C@@H]1C` (racemic) [B1 Racemic, Ethyl(1SR,2SR,5SR)-5-iodo-2-methylcyclohexane-1-carboxylate], the “Relative attractiveness toward the Mediterranean fruit fly” value in the data set with Mediterranean fruit fly is “most active”. In addition, the “Male capture compared with other treatments” value in data set [1] is “significantly higher captures than the B1 (1S,2S,5S) and commercial ceralure”; in data set [2] (10 mg), “captured significantly more male medflies than B1 (1S,2S,5S), commercial trimedlure, commercial ceralure and (acetone) control”; in data set [3] (after one week) it was “captured significantly more males than B1 (1S,2S,5S), commercial trimedlure, commercial ceralure and control”; in data set [3] (after two weeks), “captured significantly more males than any other compound”. For the same compound, the “Response of wild flies, Mean ± s.e.” value in data set [1] is given as 70.8 ± 10 b. For the same compound, the “Mean male fly capture ± s.e.” value in data set [2] (dose 1 mg on cotton wick) came out at 376.8 ± 36.7 a; in data set [2] (dose 10 mg on cotton wick), 365.53 ± 33.7 b; in data set [2] (setting [6]), 111 ± 12.2 a; in data set [2] (dose .01 mg on cotton wick, N = 25, listed as B1 racemic) it was 111; in data set [2] (dose .1 mg on cotton wick), 179.67 ± 33.5 b. For the same compound, the “Male fly capture, mean ± SEM” value in data set [3] (setting [7]) is listed as 274.5 ± 21.8 a; in data set [3] (setting [8]) it was 79.6 ± 33.3 a; in data set [3] (setting [9]) it was 4.7 ± 3.7 a.
